US5068064A, “N-substituted lauramides, their preparation and compositions in which they are present” (Sanofi, priority 1989, dated 1991)
≈ marks a conversion by molar mass, not a printed value. Counter-ions that a name gives are not always drawn.

Columns and labels:
[1] = test system: Staphylococcus aureus CIP 53154; assay: Minimum bactericidal concentration, first method (30 min contact), S. aureus; assay type: cell-based; conditions: CIP53154, 0.5 h, contact time 30 minutes
Excerpt: (§1) In the two methods, a bacterial inoculum is brought into contact with different dilutions of the product for a determined period of time.
(§2) When the contact period has ended, an aliquot of the mixture of bacterial suspension and product is taken and brought into contact with an agent for neutralizing the bacterial activity of the mixture, either in a solid medium or in a liquid medium. The bactericidal activity of the product, expressed either as a concentration or as a percentage of active principle, corresponds to an absence of bacterial growth.
(§3) The first method makes it possible to define a minimum bactericidal concentration (MBC) or minimum fungicidal concentration (MFC), expressed in μg/ml. The contact time between product and bacterial suspension is 30 minutes. The neutralizer is included in agar.
(§4) The CIP bacterial strains chosen for the study, which are available from the Institut Pasteur, are:
(§5) 1. Staphylococcus aureus
(§6) The strains are maintained on Tryptic Soy Agar® (TSA) marketed by Difco.
(§7) After 24 hours of culture at 37° C., the microbial growth is harvested with the aid of glass beads and 10 ml of diluent containing 1 g of tryptone and 8.5 g of sodium chloride in 1000 ml of distilled water. The suspension formed is shaken and the percentage transmission of light at 620 nm is measured in a spectrophotometer:
(§8) The bacterial inoculum corresponds to a 1:20 dilution of this bacterial suspension.
(§9) Plates containing cupules receive different dilutions of the test product. These dilutions of the test product are brought into contact with the different bacterial suspensions using a multiple site inoculator. After a contact time of 30 minutes, aliquots are transferred with this inoculator to the surface of an agar medium (TSA) placed in Petri dishes containing an activity neutralizer, namely 20 g of lubrol W, 2.5 g of Tween 80, 2.5 g of sodium thiosulfate and 1% of egg yolk in 1000 ml of TSA (Difco). A control for the efficacy of the neutralizer is prepared for each test product by depositing an aliquot of the dilution of the test product on the surface of the culture medium. After drying, the corresponding inoculum is deposited in the same place. An inoculum control is prepared on agar medium with and without neutralizer. The results are read off after 48 hours of incubation at 37° C.
(§10) They indicate the minimum bactericidal concentrations (MBC) for strains 1, 2, 3 and 4 and the minimum fungicidal concentrations (MFC) for strain 5.

[2] = test system: Enterococcus faecium CIP 5855; assay: Minimum bactericidal concentration, first method (30 min contact), E. faecium; assay type: cell-based; conditions: CIP5855, 0.5 h, contact time 30 minutes
Excerpt: as §1, §2, §3, §4, §6, §7, §8, §9, §10

[3] = test system: Escherichia coli CIP 54127; assay: Minimum bactericidal concentration, first method (30 min contact), E. coli; assay type: cell-based; conditions: CIP54127, 0.5 h, contact time 30 minutes
Excerpt: as §1, §2, §3, §4
(§11) 3. Escherichia coli CIP 54127
as §6, §7, §8, §9, §10

[4] = test system: Pseudomonas aeruginosa CIP A22; assay: Minimum bactericidal concentration, first method (30 min contact), P. aeruginosa; assay type: cell-based; conditions: CIPA22, 0.5 h, contact time 30 minutes
Excerpt: as §1, §2, §3, §4
4. Psuedomonas aeruginosa
as §6, §7, §8, §9, §10

[5] = test system: Candida albicans CIP 1180; assay: Minimum fungicidal concentration, first method (30 min contact), C. albicans; assay type: cell-based; conditions: CIP1180, 0.5 h, contact time 30 minutes
Excerpt: as §1, §2, §3, §9
The antifungal activity of the products according to the invention was also determined using the method described above. A representative strain of yeast was selected for the study: Candida albicans CIP 1180 (strain 5).
This is maintained on Sabouraud's Dextrose Agar marketed by Difco. The technique is identical to that described for studying the antibacterial activity. After 48 hours of culture at 37° C., the microbial growth is harvested with the aid of glass beads and 5 ml of diluent containing 1 g of tryptone and 8.5 g of sodium chloride in 1000 ml of distilled water; a further 5 ml of the diluent are then added. This suspension gives a percentage transmission of light at 620 nm of 2 to 3% in a spectrophotometer.
The inoculum corresponds to a 1:10 dilution of this microbial suspension. A 1:100 dilution of this suspension, observed between slide and cover glass through a No. 40 microscope objective, must show 10 cells per field, which corresponds to 1,000,000 yeasts per ml.
as §10

[6] = test system: Staphylococcus aureus CIP 53154; assay: Percentage of bactericidal active principle, second method (5 min contact), S. aureus; assay type: cell-based; conditions: destruction of 99.99%
Excerpt: as §1, §2
(§12) The second method makes it possible to define a percentage of bactericidal or fungicidal active principle by means of a simplified and automated adaptation of Afnor standards NF T 72-150 and NF T 72-170. In this method, the bactericidal activity of the product is determined with and without interfering substances. It is based on assessing the destruction of 99.99% of the initial bacteria by the product in 5 minutes. The interfering substances are of the protein type and are chosen for the actual conditions of application of this type of product. The contact time between product and bacterial suspension is 5 minutes, the neutralization step is 10 minutes and subculture is effected in a liquid medium.
(§13) The chosen bacterial strains are:
as §5, §6
(§14) The strains are harvested in a manner identical to the first method; these suspensions contain between 1.10^8 and 3.10^8 cells per milliliter. Appropriate dilutions make it possible to have a suspension containing 2 to 6.10^3 cells per milliliter.
(§15) The experiment is performed in microtiter plates; it comprises two steps. The first step, called the preliminary test, checks that the product is indeed neutralized. In the test proper, the different dilutions of the product are brought into contact with 2 to 6.10^3 cells per milliliter of the bacterial suspension in the second row of the microtiter plate. After a contact time of 5 minutes, an aliquot is transferred to the third row containing the neutralizer adapted to the product and to the strain. After a contact time of 10 minutes, aliquots are transferred to the last 5 rows containing Tryptic Soy Broth® (TSB) from Difco.
(§16) The interfering substances tested are a mixture of albumin and yeast extract. In the first row of the microplate, these proteins are brought into contact for 5 minutes with the different dilutions of the product. After this step, the same principle as above is applied: 5 minutes of contact with the germ, 10 minutes of contact with the neutralizer, transfer to TSB.

[7] = test system: Enterococcus faecium CIP 5855; assay: Percentage of bactericidal active principle, second method (5 min contact), E. faecium; assay type: cell-based; conditions: destruction of 99.99%
Excerpt: as §1, §2, §12, §13, §6, §14, §15, §16

[8] = test system: Escherichia coli CIP 54127; assay: Percentage of bactericidal active principle, second method (5 min contact), E. coli; assay type: cell-based; conditions: destruction of 99.99%
Excerpt: as §1, §2, §12, §13, §11, §6, §14, §15, §16

[9] = test system: Pseudomonas aeruginosa CIP A22; assay: Percentage of bactericidal active principle, second method (5 min contact), P. aeruginosa; assay type: cell-based; conditions: destruction of 99.99%
Excerpt: as §1, §2, §12, §13
4. Pseudomonas aeruginosa
as §6, §14, §15, §16

[10] = test system: Candida albicans CIP 1180; assay: Percentage of fungicidal active principle, second method (5 min contact), C. albicans; assay type: cell-based
Excerpt: as §1, §2, §12, §15, §16
The antifungal activity of the products according to the invention was also determined with and without interfering substances using the method described above. The same strain was used as for the first technique, namely Candida albicans CIP 1180. It is harvested in an identical manner to that described in the first method.

[11] = test system: Mycobacterium smegmatis CIP 7326; assay: Percentage of bactericidal active principle, second method (5 min contact), M. smegmatis; assay type: cell-based; conditions: destruction of 99.99%
Excerpt: as §1, §2, §12, §13
5. Mycobacterium smegmatis
as §6, §14, §15, §16

Product solubility = conditions: water
[12] = Simple: without interfering substances, * activity limited to the zone indicated
[13] = with proteins as interfering substances
[14] = Simple: without interfering substances

solubility (Product solubility)	Compound	MBC [1]	MBC [2]	MBC [3]	MBC [4]	MFC [5]	Bactericidal activity, results in percentage of active principle, S. aureus [6, 12]	Bactericidal activity, results in percentage of active principle, S. aureus [6, 13]	Bactericidal activity, results in percentage of active principle, E. faecium [7, 14]	Bactericidal activity, results in percentage of active principle, E. faecium [7, 13]	Bactericidal activity, results in percentage of active principle, E. coli [8, 14]	Bactericidal activity, results in percentage of active principle, E. coli [8, 13]	Bactericidal activity, results in percentage of active principle, P. aeruginosa [9, 14]	Bactericidal activity, results in percentage of active principle, P. aeruginosa [9, 13]	Fungicidal activity, results in percentage of active principle, C. albicans [10, 14]	Fungicidal activity, results in percentage of active principle, C. albicans [10, 13]	Bactericidal activity, results in percentage of active principle, M. smegmatis [11, 13]	Bactericidal activity, results in percentage of active principle, M. smegmatis [11, 12]
> 50 mg/mL	CCCCCCCCCCCC(=O)NCCN(C)Cc1ccccc1 [SR 45525]	50 µg/mL (≈ 144 µM)	10 µg/mL (≈ 28.9 µM)	10 µg/mL (≈ 28.9 µM)	50 µg/mL (≈ 144 µM)	50 µg/mL (≈ 144 µM)	0.05 percentage of active principle	0.5 percentage of active principle	0.01 percentage of active principle	0.5 percentage of active principle	0.005 percentage of active principle	0.1 percentage of active principle	0.005 percentage of active principle	0.5 percentage of active principle	0.05 percentage of active principle	0.5 percentage of active principle	0.1 percentage of active principle	
> 50 mg/mL	CCCCCCCCCCCC(=O)NCCCN(C)Cc1ccccc1 [SR 45583 A, N-(3-Benzylmethylaminopropyl)lauramide hydrochloride]	50 µg/mL	10 µg/mL	10 µg/mL	50 µg/mL	50 µg/mL	0.05 percentage of active principle	0.5 percentage of active principle	0.01 percentage of active principle	0.05 percentage of active principle	0.05 percentage of active principle	0.1 percentage of active principle	0.01 percentage of active principle	0.5 percentage of active principle	0.05 percentage of active principle	0.1 percentage of active principle	0.05 percentage of active principle	0.01 percentage of active principle
